These results are taken from ChEMBL document CHEMBL1932944, “Hoiamide D, a marine cyanobacteria-derived inhibitor of p53/MDM2 interaction” (Bioorg Med Chem Lett, 2012).

Molecules are shown by their SMILES.

A short description of experiment [1]: Inhibition of p53/HDM2 interaction.
The nature of experiment [2]: Inhibition of human biotin-labelled p53/GST-tagged Hdm2 interaction preincubated for 20 mins before GST-tagged Hdm2 protein addition measured after 1 hr by HTR-FRET based competition assay.
A further experiment has as its system NCI-H460. Briefly: Cytotoxicity against human H460 cells at 40 uM relative to control. Format: functional.

In turn, `CCCCCCCC[C@H]1NC(=O)[C@@H](CC(C)C)NC(=O)[C@H]([C@@H](C)O)NC(=O)[C@@H](CC(C)C)NC(=O)[C@@H](CC(N)=O)NC(=O)[C@H](CC(N)=O)NC(=O)[C@H](C)NC(=O)[C@H]([C@@H](C)O)NC(=O)[C@H](CCCN2C=C3C(=O)[C@@](C)(OC(=O)CCC)C(=O)C(Cl)=C3[C@@H](O)[C@]23CCCO3)NC1=O` (relative stereo) yielded an IC50 in experiment [1] of 4.6 µM. In other words, the single-digit micromolar range.

As to `C=C(C(=O)O)C(CCCCCC)C(=O)O` (centres undefined) [HEXYLITACONIC ACID], in experiment [1], the IC50 was found to be 230 µM. This IC50 lies about 50-fold higher than the previous one.

In experiment [2], `CCC[C@@H](C)[C@H](O)[C@H](C)[C@@H](O)[C@@H](C)[C@H](Cc1nc(C2=N[C@@](C)(C3=N[C@@](C)(C(=O)N[C@H]([C@@H](O)[C@@H](C)C(=O)O)[C@@H](C)CC)CS3)CS2)cs1)OC` [HOIAMIDE D] returned an EC50 of 4.5 µM. In the experiment on NCI-H460, this compound registered an Activity of 16%.
